Where no end group is shown, it is not given here. [ ]: non-standard residue; d: D form. hCit = NC(=O)NCCCC[C@H](N)C(=O)O
Experiments:
HLA-HHDII/DR1 mice = test: Ex vivo IFNγ ELISpot after peptide immunisation, HHDII/DR1 mice; assay type: in vivo, mouse; conditions: for IFNγ ELISpot response: 3 immunisations with CpG/MPLA, day 21
Description: C57BL/6 mice (Charles River, UK), HLA-DR4 mice (Model #4149, Taconic, USA), HLA-A2/DR1 (HHDII/DR1, Pasteur Institute), HLA-A2.1+/+HLA-DP4+/+hCD4+/+ (HLA-HHDII/DP4) transgenic mice (EM: 02221, European Mouse Mutant Archive) described in patent WO2013/017545 A1 (EMMA repository, France) were used, aged between 8 and 12 weeks. Peptides were dissolved in PBS to 1 mg/ml and then emulsified (a series of dilutions) with CpG ODN 1826 and MPLA 6 μg/mouse of each (Invivogen, UK). Peptides (25 μg/mouse) were injected subcutaneously at the base of the tail. Mice were immunised at days 1, 7 and 14 for peptide immunisation. Spleens were removed for analysis at day 21 unless stated otherwise.
ELISpot assays were performed using murine IFNγ, IL-17 and IL-10 capture and detection reagents according to the manufacturer's instructions (Mabtech, Sweden). In brief, anti-IFNγ, IL-17 and IL-10 specific antibodies were coated onto wells of 96-well Immobilin-P plate. Synthetic peptides (at various concentrations) and 5×10^5 per well splenocytes were added to wells of the plate in quadruplicate Tumour target cells were added where relevant at 5×10^4/well in triplicate and plates incubated for 40 hrs at 37° C. After incubation, captured IFNγ, IL-10 and IL-17 were detected by biotinylated anti-IFNγ, IL-10 and IL-17 antibodies and developed with a streptavidin alkaline phosphatase and chromogenic substrate. Lipopolysaccharide (LPS; 5 μg/ml) was used as a positive control. For MHC blocking studies, anti-CD4 blocking antibody (GK1.5) or anti-CD4 blocking antibody (RPA-T4) for HHDII/DP4 mice which express human CD4 and anti-CD8 blocking antibody (2.43) from Bioxcell were used at 20 μg/ml. Spots were analysed and counted using an automated plate reader (Cellular Technologies Ltd).
Screening was performed to identify potential homocitrullinated vimentin epitopes in mice. Mice were immunised with pools of homocitrullinated peptides. […] Each pool was administered as three immunisations containing 20 μg of each peptide and CpG/MPLA as an adjuvant on day 1, 8 and 15. On day 21 the mice were culled and the immune responses to each peptide within the immunising pool were assessed by ex vivo ELISpot. Given that different mouse strains have different MHC repertoires a number of strains were used for screening. Peptide responses were assessed in transgenic strains expressing human DR4 or HHDII/DR1 in a C57BL/6 background (see methods). […]
The five selected homocitrullinated Cyk8 peptides were also screened in HHDII/DR1 transgenic mice. […] Response to Cyk8 112Hcit peptide in the HHDII/DR1 mice was lost in the presence of CD8 blocking antibody but less effect of the CD4 blocking antibody was seen (FIG. 12b). […] Responses to homocitrullinated Cyk8 peptides show both CD4 and CD8 mediated responses.

[1] = tested on: PBMCs from healthy donors; test: CFSE proliferation assay, CD25-depleted PBMCs of healthy donors; assay type: cell-based, human; conditions: 10 μg/ml peptide, day 10, vs media control
Description: (§1) Peripheral blood samples were drawn into lithium heparin tubes (Becton Dickinson) and processed immediately following venepuncture. PBMCs were isolated by density gradient centrifugation using Ficoll-Hypaque. Proliferation and cultured ELISpot assay of PBMCs were performed immediately after isolation. For CD25 depletion PBMCs were processed as above and […] using anti-CD25 microbeads and MACS Cell Separation Columns (Miltenyi).
(§2) Briefly, a 50 μM stock solution in warm PBS was prepared from a master solution of 5 mM in dimethyl sulfoxide (DMSO). CFSE was rapidly added to PBMCs (5×10^6 cells/ml loading buffer (PBS with 5% v/v heat inactivated FCS)) to achieve a final concentration of 5 μM. PBMCs were incubated at room temperature in the dark for 5 mins after which non-cellular incorporated CFSE was removed by washing twice with excess (×10 v/v volumes) of loading buffer (300g ×10 mins). Cells were made up in complete media to 1.5×10^6/mL and plated and stimulated with vehicle (negative control), PHA (positive control, final concentration 10 μg/ml) or peptide (10 μg/ml) as described above.
(§3) On day 10, 500 μl of cells were removed from culture, washed in PBS and stained with 1:50 dilution of anti-CD4 (PE-Cy5, clone RPA-T4, ThermoFisher), anti-CD8 efluor 450, clone RPA-T8, ThermoFisher) and anti-CD134 (PE-Cy7, Clone REA621, Miltenyi). […] Stained samples were analysed immediately on a MACSQuant 10 flow cytometer equipped with MACSQuant software version 2.8.168.16380.
Determination as to the existence of a repertoire of T cells for carbamylated epitopes in humans was investigated using PBMCs from normal, healthy donors. […] Cells were labelled with CFSE and proliferation was monitored after stimulation with homocitrulline peptides. […]
Determination as to the existence of a repertoire of T cells for carbamylated Cyk8 epitopes in humans was investigated using PBMCs from seven normal, healthy donors. […] Cells were labelled with CFSE and proliferation was monitored after stimulation with Cyk8 Hcit peptides.

[2] = tested on: B16 HHDII/DP4 tumour cells; test: Tumour therapy, B16 HHDII/DP4 tumour in HHDII/DP4 mice; assay type: in vivo, mouse; conditions: peptide with CpG/MPLA days 4, 11, 18
Excerpt: To determine if the epitopes that stimulate T cell responses are presented on MHC-II within the tumour environment, our homocitrullinated peptides were checked for tumour therapy in B16 tumour models. Mice were implanted with tumour cells on day 1 and then immunised with peptides and CpG/MPLA on days 4, 11 and 18.
HHDII/DP4 mice were challenged with B16 HHDII/DP4 tumour cells and then immunised with ALDOA homocitrulline peptides (FIG. 19c).
Next, we aimed to determine if these cell populations play a role in carbamylation in the tumour microenvironment and are therefore necessary for the anti-tumour effect. HHDII/DP4 mice were implanted with tumour and then immunised with ALDOA homocitrulline peptides. Mice where then either untreated or treated with Ly6G or Ly6C depletion antibodies to remove either the neutrophils/G-MDSCs or monocytes/M-MDSCs, respectively Peptide vaccination was associated with 100% survival whereas peptide and Ly6G+antibody was associated with a slight but significant reduction in the anti-tumour effect (80% survival, p=0.04) (FIG. 23a).
Next, antibodies were used to deplete the Ly6C+ population (FIG. 23b). Ly6C depletion alone increased survival when compared to control (20% survival, p=0.0012). For this study vaccination alone gave 80% survival (p<0.0001).

[3] = tested on: PBMCs from cancer patients; test: CFSE proliferation assay, CD25-depleted PBMCs of cancer patients; assay type: cell-based, human; conditions: 10 μg/ml peptide, day 10, vs media control
Description: as §1
as §2, with “Cells were made up in complete media to 1.5×10^6/mL and plated and stimulated with vehicle (negative control), PHA (positive control, final concentration 10 μg/ml) or peptide (10 μg/ml) as described above.” left out
as §3, with “2.8.168.16380. […]” for “2.8.168.16380.”

| Substance | IFNγ response in presence of CD4 blocking antibody (HLA-HHDII/DR1 mice) | IFNγ response in presence of CD8 blocking antibody (HLA-HHDII/DR1 mice) | cross reactivity of Hcit response to wt peptide (HLA-HHDII/DR1 mice) | IFNγ ELISpot response (HLA-HHDII/DR1 mice) | CD4 T cell proliferation [1] | survival [2] | CD4 T cell proliferation [3] |
| --- | --- | --- | --- | --- | --- | --- | --- |
| LEQQN-hcit-MLET-hcit-WSLLQQQ-hcit-T (LEQQN[hCit]MLET[hCit]WSLLQQQ[hCit]T) [Cyk8 112-131 Hcit] | less effect | lost | minimal cross reactivity | Significant responses | – | – | – |
| LREYQELMNV-hcit-LALDIEI (LREYQELMNV[hCit]LALDIEI) [Cyk8 371-388 Hcit] | lost | not with the CD8 blocking antibody | minimal cross reactivity | Significant responses | – | – | – |
| hcit-DGADFA-hcit-WRCVL-hcit-IGEH ([hCit]DGADFA[hCit]WRCVL[hCit]IGEH) [Aldolase A 140-157 Hcit] | – | – | significantly higher | stimulated responses | significant CD4 proliferation | 60% | – |
| IGGVILFHETLYQ-hcit-ADDGRP (IGGVILFHETLYQ[hCit]ADDGRP) [Aldolase A 74-93 Hcit] | – | – | – | – | significant CD4 proliferation | 90% | significant proliferative responses |
| NYID-Hcit-VRFLEQQN-Hcit-ILLAEL (NYID[hCit]VRFLEQQN[hCit]ILLAEL) [Vimentin 116-135 Hcit] | significantly decreased | not in the presence of the CD8 blocking antibody | no cross reactivity | significant response | significant CD4 proliferation | – | just short of significance |

Reference: patent US12458688B2, “Epitopes” (Scancell Limited, priority 2018, dated 2025)
